Like-named read-outs stand apart in the source and are kept apart here.
Target: T1, Human Factor D (Homo sapiens, UniProt P00746)
T1 construct: purified from human serum; purchased Complement Technology, Inc; host or cells: human serum
Assay: Human Factor D assay (Example 8)
Assay type: biochemical
Method: Human Factor D (purified from human serum, Complement Technology, Inc.) at 80 nM final concentration was incubated with test compound at various concentrations for 5 minutes at room temperature in 50 mM Tris, 1M NaCl, pH 7.5. A synthetic substrate Z-L-Lys-SBzl and DTNB (Ellman's reagent) are added to final concentrations of 100 μM each. […] IC50 values are calculated by nonlinear regression of complement Factor D reaction rates as a function of test compound concentration.

[1] = Table 1, Human Factor D 80 nM, substrate Z-L-Lys-SBzl, read-out: IC50

T1 sequence (P00746 26-253): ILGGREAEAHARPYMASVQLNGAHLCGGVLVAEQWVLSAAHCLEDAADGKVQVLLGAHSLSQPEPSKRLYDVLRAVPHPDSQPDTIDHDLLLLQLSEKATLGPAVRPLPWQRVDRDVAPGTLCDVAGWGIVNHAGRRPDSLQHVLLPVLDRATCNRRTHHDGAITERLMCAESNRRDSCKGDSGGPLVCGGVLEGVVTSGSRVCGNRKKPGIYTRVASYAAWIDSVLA

SMILES	IC50 [1] [µM]	IC50 [µM]
CC(=O)c1cn(CC(=O)N2[C@H](C(=O)NCc3cccc(Cl)c3F)C[C@@H]3CCCC[C@@H]32)c2ccccc12 [Compound 1, (2S,3aS,7aS)-1-(2-(3-acetyl-1H-indol-1-yl)acetyl)-N-(3-chloro-2-fluorobenzyl)octa-hydro-1H-indole-2-carboxamide]		< 1
CC(=O)n1cc(NC(=O)[C@@H]2C[C@@H](F)CN2C(=O)NCc2cccc(Cl)c2F)c2ccccc21 [Compound 3, (2S,4R)-N2-(1-acetyl-1H-indol-3-yl)-N1-(3-chloro-2-fluorobenzyl)-4-fluoropyrrolidine-1,2-dicarboxamide]	> 10	
CC(=O)n1cc(NC(=O)[C@@H]2C[C@H](F)CN2C(=O)NCc2cccc(Cl)c2F)c2ccccc21 [Compound 4, (2S,4S)-N2-(1-acetyl-1H-indol-3-yl)-N1-(3-chloro-2-fluorobenzyl)-4-fluoropyrrolidine-1,2-dicarboxamide]	> 10	
CC(=O)n1cc(NC(=O)[C@@H]2C[C@H](F)CN2C(=O)NCc2ccccc2)c2ccccc21 [Compound 5, (2S,4S)-N2-(1-acetyl-1H-indol-3-yl)-N1-benzyl-4-fluoropyrrolidine-1,2-dicarboxamide]	> 10	
NC(=O)n1cc(NC(=O)N2C[C@H](F)C[C@H]2C(=O)NS(=O)(=O)c2cccc(Cl)c2F)c2ccccc21 [Compound 6, (2S,4R)-N1-(1-carbamoyl-1H-indol-3-yl)-N2-(3-chloro-2-fluorophenylsulfonyl)-4-fluoropyrrolidine-1,2-dicarboxamide]	> 10	
CC(=O)n1cc(NC(=O)N2C[C@H](F)C[C@H]2C(=O)NS(=O)(=O)c2cccc(Cl)c2F)c2ccccc21 [Compound 7, (2S,4R)-N1-(1-acetyl-1H-indol-3-yl)-N2-(3-chloro-2-fluorophenylsulfonyl)-4-fluoropyrrolidine-1,2-dicarboxamide]	> 10	
CC(=O)n1cc(NC(=O)[C@H]2CC(F)(F)CN2C(=O)NCc2cccc(Cl)c2F)c2ccccc21 [Compound 8, (R)-N2-(1-acetyl-1H-indol-3-yl)-N1-(3-chloro-2-fluorobenzyl)-4,4-difluoropyrrolidine-1,2-dicarboxamide]	> 10	
CC(=O)n1cc(NC(=O)[C@H]2CCCN2C(=O)NCc2cccc(Cl)c2F)c2ccccc21 [Compound 9, (R)-N2-(1-acetyl-1H-indol-3-yl)-N1-(3-chloro-2-fluorobenzyl)pyrroli-dine-1,2-dicarboxamide]	> 10	
CC(=O)c1cn(CC(=O)N2C[C@H](F)C[C@H]2c2ncc(-c3cccc(Cl)c3)[nH]2)c2ccccc12 [Compound 11, 2-(3-acetyl-1H-indol-1-yl)-1-((2S,4R)-2-(5-(3-chlorophenyl)-1H-imidazol-2-yl)-4-fluoropyrrolidin-1-yl)ethanone]	> 10	
CC(=O)c1cn(CC(=O)N2C[C@H](F)[C@@H](OCC3CC3)[C@H]2C(=O)NCc2cccc(Cl)c2F)c2cc(O)ccc12 [Compound 21, (2S,3S,4S)-1-(2-(3-acetyl-6-hydroxy-1H-indol-1-yl)acetyl)-N-(3-chloro-2-fluorobenzyl)-3-(cyclopropylmethoxy)-4-fluoropyrrolidine-2-carboxamide]		< 1
O=C(c1cn(CC(=O)N2[C@@H]3C[C@@H]3C[C@H]2C(=O)NCc2cccc(Cl)c2F)c2ccccc12)C1CC1 [Compound 22, (1R,3S,5R)-N-(3-chloro-2-fluorobenzyl)-2-(2-(3-(cyclopropanecarbonyl)-1H-indol-1-yl)acetyl)-2-azabicyclo[3.1.0] hexane-3-carboxamide]		< 1
CC(=O)c1cn(CC(=O)N2CC(F)C(OCC3CC3)[C@H]2C(=O)NCc2cccc(Cl)c2F)c2cc(O)ccc12 (stereo partly drawn) [Compound 25, (2S)-1-(2-(3-acetyl-6-hydroxy-1H-indol-1-yl)acetyl)-N-(3-chloro-2-fluorobenzyl)-3-(cyclopropylmethoxy)-4-fluoropyrrolidine-2-carboxamide]		< 1
COc1ccc2c(O[C@@H]3C[C@@H](C(=O)NCc4cccc(Cl)c4F)N(C(=O)Cn4cc(C(C)=O)c5ccccc54)C3)cc(-c3ccccc3)nc2c1 [Compound 29, (2S,4R)-1-(2-(3-acetyl-1H-indol-1-yl)acetyl)-N-(3-chloro-2-fluorobenzyl)-4-(7-methoxy-2-phenylquinolin-4-yloxy)pyrrolidine-2-carboxamide]		> 10

Now from value to compound, other results behind:

IC50 [1] [µM]	SMILES	IC50 [µM]
> 10	CC(=O)c1cn(CC(=O)N2C[C@H](F)C[C@H]2c2nc3cc(Cl)ccc3[nH]2)c2ccccc12 [Compound 15]	
> 10	CC(=O)n1cc(NC(=O)[C@H]2CCCN2C(=O)Nc2cccc(OC(F)(F)F)c2F)c2ccccc21 [Compound 16, (R)-N2-(1-acetyl-1H-indol-3-yl)-N1-(2-fluoro-3-(trifluoromethoxy)phenyl)pyrrolidine-1,2-dicarboxamide]	
> 10	CC(=O)n1cc(NC(=O)[C@H]2CC(F)(F)CN2C(=O)Cc2cccc(Cl)c2F)c2ccccc21 [Compound 17, (R)-N-(1-acetyl-1H-indol-3-yl)-1-(2-(3-chloro-2-fluorophenyl)acetyl)-4,4-difluoropyrrolidine-2-carboxamide]	
< 1	CC(=O)c1cn(CC(=O)N2CC[C@@H](OCC3CC3)[C@H]2C(=O)NCc2cccc(Cl)c2F)c2ccccc12 [Compound 18, (2S,3R)-1-(2-(3-acetyl-1H-indol-1-yl)acetyl)-N-(3-chloro-2-fluorobenzyl)-3-(cyclopropylmethoxy) pyrrolidine-2-carboxamide]	
> 10	COc1ccc2c(O[C@@H]3C[C@@H](C(=O)NCc4cccc(Cl)c4F)N(C(=O)Nc4cn(C(C)=O)c5ccccc45)C3)cc(-c3ccccc3)nc2c1 [Compound 19, (2S,4R)-N1-(1-acetyl-1H-indol-3-yl)-N2-(3-chloro-2-fluorobenzyl)-4-(7-methoxy-2-phenylquinolin-4-yloxy)pyrrolidine-1,2-dicarboxamide]	
> 10	CC(=O)n1cc(NC(=O)Nc2cn(C(C)=O)c3ccccc23)c2ccccc21 [Compound 20, 1,3-bis(1-acetyl-1H-indol-3-yl)urea]	
< 1	O=C(c1cn(CC(=O)N2C[C@H](F)C[C@H]2C(=O)NCc2cccc(Cl)c2F)c2ccccc12)C1CC1 [Compound 24, (2S,4R)-N-(3-chloro-2-fluorobenzyl)-1-(2-(3-(cyclopropanecarbonyl)-1H-indol-1-yl)acetyl)-4-fluoropyrrolidine-2-carboxamide]	
> 10	NC(=O)N1CC(NC(=O)[C@@H]2CCC[C@H]2C(=O)NCc2cccc(Cl)c2F)c2ccccc21 (stereo partly drawn) [Compound 26, (1R,2R)-N1-(1-carbamoylindolin-3-yl)-N2-(3-chloro-2-fluorobenzyl)cyclo-pentane-1,2-dicarboxamide]	
> 10	CC(=O)c1cn(CC(=O)N2C[C@H](F)C[C@H]2Cn2cc(-c3ccc(F)cc3)nn2)c2ccccc12 [Compound 27, 2-(3-acetyl-1H-indol-1-yl)-1-((2S,4R)-4-fluoro-2-((4-(4-fluorophenyl)-1H-1,2,3-triazol-1-yl)methyl)pyrrolidin-1-yl)ethanone]	
> 10	NC(=O)n1cc(NC(=O)N2C[C@H](F)C[C@H]2Cn2cc(-c3ccc(F)cc3)nn2)c2ccccc21 [Compound 28, 3-((2S,4R)-4-fluoro-2-((4-(4-fluorophenyl)-1H-1,2,3-triazol-1-yl)methyl)pyrrolidine-1-carboxamido)-1H-indole-1-carboxamide]	
